Data from patent publication US4070473A, “Piperidino-butyrophenones” (AB Ferrosan, priority 1973, dated 1978).
Structures can show the parent of a compound that is named as a salt. Where two headings read alike, the source gives them in different places.

Tests used:
[1] = test system: conditioned avoidance response, rats; experiment: Inhibition of conditioned behaviour (conditioned avoidance response) in rats (Test 5); assay type: in vivo; conditions: Rattus norvegicus, sc, read-out: Inhibition of conditioned avoidance response, rats ED50
Text: 5. Inhibition of conditioned behaviour in rats. These tests were in accord with published test procedures and protocols, for instance: 5.

[2] = test system: aggressive behaviour in male mice; experiment: Inhibition of aggressive behaviour in male mice (Test 1); assay type: in vivo; conditions: for ED50: Mus musculus, sc, read-out: Inhibition of agression, mice ED50
Text: Methylperon -- formula hereinbefore mentioned (R3 = H; R4 = CH3) chlorpromazine [drawing 23] in each of the following established standard tests: 1. Inhibition of aggressive behaviour in male mice.
1. Valzelli, L. in Aggressive Behaviour, Eds. Garattini and Sigg, p. 70 (1969)

[3] = test system: Amphetamine antagonism, rats; experiment: Amphetamine antagonism in rats (antipsychotic effect) (Test 3); assay type: in vivo; conditions: for ED50: Rattus norvegicus, sc, read-out: Amphetamine antagonism, rats ED50; for activity in Test 3 (amphetamine antagonism; antipsychotic/anxiolytic effect), in words: Table-Test No. 3
Text: 3. Amphetamine antagonism in rats (antipsychotic effect).
3. Randrup, A. et al. in Acta Pharmacol. (Kph), 20, 145 (1963)

[4] = test system: exploratory behaviour, mice; experiment: Inhibition of climbing in mice (inhibition of exploratory behaviour) (Test 2); assay type: in vivo; conditions: Mus musculus, sc, read-out: Inhibition of exploratory behaviour, mice ED50
Text: 2. Inhibition of climbing in mice (inhibition of exploratory behaviour).
2. Sandberg, S. in Arzneimittelforschung, 9, 203 (1958)

[5] = Cataleptogenic effect in rats (measure of the extrapyramidal side effects) (Test 4); assay type: in vivo; conditions: rat, in vivo, sc
Text: (§1) 4. Cataleptogenic effect in rats (measure of the extrapyramidal side effects).
(§2) 4. Stille, G. in Schweiz.

[6] = Toxicity, subcutaneously on mice; conditions: mouse, in vivo, sc
Text: The antipsychotic effect as shown in Test No. 3 is further confirmed by the blocking of apomorphine emesis in dogs. Ref: Janssen, P. A. J. et al. Arzneimittelforschung, 1, 1196 (1965) Furthermore, the compounds have a pronounced serotonine inhibiting effect, Ref: Alps, J. et al. Br. J. Pharmac. 44, 52 (1972) and a strong anti-inflammatory effect (measured with carrageenin-induced edema in rats). Ref: Takashima, T. et al. Arzneimittelforschung 22, 711 (1972) Their toxicity is rather low, 200 - 300 mg/kg. In comparison, the toxicity for haloperidol is 70 mg/kg and for methylperon is 280 mg/kg (all toxicities being performed subcutaneously on mice).

[7] = test system: Cataleptogenic effect, rats; experiment: Cataleptogenic effect in rats (measure of the extrapyramidal side effects) (Test 4); assay type: in vivo; conditions: rats, Table-Test No. 4
Text: as §1, §2

[8] = rats, s.c., measure of the extrapyramidal side effects, read-out: Cataleptogenic effect, rats ED50

| SMILES | ED50 [1] | ED50 [2] | ED50 [3] | activity in Test 3 (amphetamine antagonism; antipsychotic/anxiolytic effect), in words [3] | ED50 [4] | ED50 [5, 8] | ED50 ([1]; rats, s.c.) | ED50 ([2]; mice, s.c.) | ED50 ([3]; rats, s.c.) | ED50 ([4]; mice, s.c.) | LD50 [6] | extrapyramidal / cataleptogenic effect, in words [7] | activity in Test 1 (antiaggressive), in words ([2]; Table-Test No. 1) | ED50 [5] |
| --- | --- | --- | --- | --- | --- | --- | --- | --- | --- | --- | --- | --- | --- | --- |
| CN(C)CCCN1c2ccccc2Sc2ccc(Cl)cc21 [Chlorpromazine, reference compound] | 4.5 mg/kg | 0.4 mg/kg | 1.2 mg/kg | not very active | 0.75 mg/kg | 4.5 mg/kg | – | – | – | – | – | – | – | – |
| COC1(C)CCN(CCCC(=O)c2ccc(F)cc2)CC1 [Example 1, gamma-(4-methyl-4-methoxy-piperidino)-p-fluorobutyrophenone] | – | – | – | – | – | 10 mg/kg | 0.6 mg/kg | 0.2 mg/kg | 0.35 mg/kg | 0.65 mg/kg | – | – | – | – |
| CCOC1(C)CCN(CCCC(=O)c2ccc(F)cc2)CC1 [Example 2] | – | – | – | – | – | 6 mg/kg | 1.3 mg/kg | 0.7 mg/kg | 0.1 mg/kg | 1 mg/kg | – | – | – | – |
| CCCOC1(C)CCN(CCCC(=O)c2ccc(F)cc2)CC1 [Example 3] | – | – | – | – | – | 7 mg/kg | 0.5 mg/kg | 0.35 mg/kg | 0.2 mg/kg | 1 mg/kg | – | – | – | – |
| CCCCOC1(C)CCN(CCCC(=O)c2ccc(F)cc2)CC1.Cl [Example 4, gamma-(4-methyl-4-butoxypiperidino)-p-fluorobutyrophenone hydrochloride] | – | – | – | – | – | 20 mg/kg | 2.5 mg/kg | 0.35 mg/kg | 0.75 mg/kg | 2 mg/kg | – | – | – | – |
| CCC1(OC)CCN(CCCC(=O)c2ccc(F)cc2)CC1 [Example 5] | – | – | – | – | – | 10 mg/kg | 1.5 mg/kg | 0.7 mg/kg | 0.1 mg/kg | 0.7 mg/kg | – | – | – | – |
| CCOC1(CC)CCN(CCCC(=O)c2ccc(F)cc2)CC1 [Example 6, gamma-(4-ethyl-4-ethoxypiperidino)-p-fluoro-4-butyrophenone hydrochloride] | – | – | – | – | – | 5 mg/kg | 1.5 mg/kg | 0.08 mg/kg | 0.1 mg/kg | 1.4 mg/kg | – | – | – | – |
| CCCOC1(CC)CCN(CCCC(=O)c2ccc(F)cc2)CC1 [Example 7] | – | – | – | – | – | 6 mg/kg | – | 0.7 mg/kg | 0.35 mg/kg | 1.2 mg/kg | – | – | – | – |
| CCCC1(OC)CCN(CCCC(=O)c2ccc(F)cc2)CC1 [Example 8] | – | – | – | – | – | 6.2 mg/kg | 5.5 mg/kg | 0.5 mg/kg | 1 mg/kg | 3.1 mg/kg | – | – | – | – |
| COC1(C(C)C)CCN(CCCC(=O)c2ccc(F)cc2)CC1.Cl [Example 10, gamma-(4-isopropyl-4-methoxy-piperidino)-p-fluorobutyrophenone hydrochloride] | – | – | – | – | – | 5 mg/kg | 1.2 mg/kg | 0.15 mg/kg | 0.1 mg/kg | 1.1 mg/kg | – | – | – | – |
| CCCCC1(OCC)CCN(CCCC(=O)c2ccc(F)cc2)CC1 [Example 12] | – | – | – | – | – | 3 mg/kg | 5 mg/kg | 0.35 mg/kg | 0.07 mg/kg | 1.6 mg/kg | – | – | – | – |
| CCCCCC1(OCC)CCN(CCCC(=O)c2ccc(F)cc2)CC1 [Example 13] | – | – | – | – | – | 6.8 mg/kg | – | 0.5 mg/kg | 0.35 mg/kg | 1.3 mg/kg | – | – | – | – |
| O=C(CCCN1CCC(O)(c2ccc(Cl)cc2)CC1)c1ccc(F)cc1 [Haloperidol, reference compound] | 0.15 mg/kg | 0.8 mg/kg | 0.03 mg/kg | – | 1.3 mg/kg | 0.27 mg/kg | – | – | – | – | 70 mg/kg | pronounced cataleptogenic effect in rats | – | – |
| CC1CCN(CCCC(=O)c2ccc(F)cc2)CC1 [Methylperon, reference compound] | – | – | – | not very active | – | – | 6.8 mg/kg | 2.2 mg/kg | 3.5 mg/kg | 2 mg/kg | 280 mg/kg | – | not very active | 12 mg/kg |
